Source: paper PMC5017749, “Preclinical Metabolism, Pharmacokinetics and In Vivo Analysis of New Blood-Brain-Barrier Penetrant Fingolimod Analogues: FTY720-C2 and FTY720-Mitoxy” (PLoS ONE, 2016)
Read-outs that look alike come from different tables or passages of the source.

What was measured:
[1] = Metabolite profiling and identification in rat hepatocytes; type: in vitro ADME, rat (Sprague Dawley); parameters: key to Source (peak identified in rat hepatocytes): R = Rat; hr = Human; lowercase letter indicates low abundance; h: lowercase letter indicates low abundance; details: for Percent Distribution (1 hr incubation) Rat / Percent Distribution (2 hr incubation) Rat: relative abundance among metabolites of the parent (1 μM), equal LC/MS sensitivity assumed
Procedure: (§1) Cryopreserved hepatocytes were grown in culture and incubations were performed to generate samples to measure the formation of FTY720-C2 and FTY720-Mitoxy metabolites. Incubations of 1 mL medium containing 1 million cells and 1 μM of FTY720-C2 and FTY720-Mitoxy were conducted at 37° C in a 5% CO2 incubator for 0, 1 and 2 hr, with gentle shaking. Positive control incubations used a cocktail solution containing 10 μM testosterone and 10 μM diclofenac performed for 0, 1 and 2 hr, under similar conditions to confirm the metabolic activity of the hepatocytes. The reactions were terminated by adding 2 mL acetonitrile containing 0.02% formic acid, and thoroughly mixing with gentle vortexing. Samples were transferred into 6 mL vials and stored in the freezer (-70°C) overnight for protein precipitation. Following overnight precipitations, samples were centrifuged at 3,000 rpm for 10 min to pellet proteins. Supernatants were transferred into clean 6 mL vials and evaporated to dryness using a TurboVap concentrator system. Samples were reconstituted using 600 μL 20% acetonitrile in water, briefly vortexed to resuspend, then aliquoted for LC-MS/MS analysis. Controls incubations also included “No drug control” and “no cell control” samples treated in a similar manner as test article samples.
(§2) Metabolite profiling and identification experiments were conducted by LC-MS/MS, composed of an HPLC system consisting of an Agilent Technologies 1200 Series Model G1322A Degasser, Agilent Technologies 1200 Series Model G1312A Binary Pump, Shimadzu HTc autosampler, and Valco Model E60 Flow Diversion Valve, and coupled to an API 4000 mass spectrometer. Separations were accomplished on a Gemini C18 column (150 × 2.0 mm, 5-μm particles; Phenomenex Inc., Torrance, CA), preceded by a SecurityGuard C18 guard column (4.0 × 2.0 mm; Phenomenex Inc.). A two-component mobile phase, consisted of a linear gradient of water containing 0.5% formic acid (v/v) and methanol:acetonitrile (1:1, v/v) containing 0.5% formic acid (v/v), was pumped at 0.3 mL/min. The first 4 min of flow was diverted away from the mass spectrometer. Analysis of the positive control samples was conducted with an HPLC system consisting of two Shimadzu LC-10ATvp pumps and a LEAP Pal autosampler. Separations were accomplished on a Luna C8(2) column (50 × 2.0 mm, 3-μm particles; Phenomenex Inc., Torrance, CA), preceded by a SecurityGuard C18 column (4.0 × 2.0 mm; Phenomenex Inc.). Separation was accomplished with a gradient of water containing 0.2% formic acid and 0.012% NH4OH (v/v) versus acetonitrile at an initial rate of 0.7 mL/min. An API 4000 QTrap mass spectrometer (AB Sciex, Foster City, CA) was used for analysis of positive control samples. Each mass spectrometer used was equipped with an electrospray ionization source and operated in the positive ionization mode. Metabolite identification experiments were performed by recording full scan mass spectral data (Q1MS) for all samples, and selected samples were analyzed to obtain product ion spectra (MS/MS) of test article metabolites identified in the full scan mass spectral data.

[2] = Metabolite profiling and identification in human hepatocytes; type: in vitro ADME; parameters: key to Source (peak identified in human hepatocytes): R = Rat; hr = Human; lowercase letter indicates low abundance; h: lowercase letter indicates low abundance; details: for Percent Distribution (1 hr incubation) Human / Percent Distribution (2 hr incubation) Human: relative abundance among metabolites of the parent (1 μM), equal LC/MS sensitivity assumed
Procedure: as §1, §2

[3] = Metabolic stability (intrinsic clearance) in human liver microsomes; type: in vitro ADME
Procedure: (§3) Liver microsomal incubations contained 0.1mg/mL microsomal proteins and 1 μM of FTY720-C2 or FTY720-Mitoxy in 100 mM potassium phosphate buffer (pH 7.4) ± an NADPH regenerating system (3.5 mM glucose 6-phosphate, 1.3 mM NADP^+, and 0.4 units/mL glucose-6-phosphate dehydrogenase). Following incubations, reactions were terminated for analysis after 0, 10, 20, 30, and 60 min by the addition of acetonitrile containing C17 sphingosine (300 ng/mL) as the internal standard. Samples were vigorously mixed and centrifuged at 3,400 rpm for 10 min to pellet precipitated proteins. An aliquot of each supernatant was used for LC/MS analysis, for determination of the remaining FTY720-C2 and FTY720-Mitoxy. Similar incubations were performed using a cocktail solution containing 0.2 μM midazolam and 1 μM diclofenac to determine the metabolic activity of the microsomes as an additional control.
(§4) Samples resulting from liver microsomal incubations were analyzed by LC-MS/MS. Aliquots of the supernatants were injected onto an X-Bridge C18 column (2.1 × 50 mm, 3.5-μm particles) (Waters, Milford, MA), preceded by a SecurityGuard C18 guard column (4.0 × 2.0 mm; Phenomenex Inc.). Separations were accomplished with a gradient of 0.1% acetic acid in water (v/v) versus 0.1% acetic acid in acetonitrile: methanol (75:25, v/v) at a rate of 0.8 mL/min. The eluents were further applied into an equipped API 4000 QTrap mass spectrometer (AB Sciex, Foster City, CA) with electrospray ionization (ESI) interface by two coupled LC-10 AT pumps. Peak area ratios of FTY720-C2 or FTY720-Mitoxy against the C17 sphingosine internal standard were used to determine the amount of parent remaining compared to that at 0 min. The percent of FTY720-C2 or FTY720-Mitoxy remaining was calculated by dividing the peak area ratio obtained at each time point by that obtained at 0 min. The in vitro intrinsic clearance (CLint) was calculated by linear regression of the log percent of compound remaining versus time plots using Microsoft Excel, two independent experiments (n = 2) were performed for each compound and species. Then, the mean and standard deviation (SD), of two values for each condition, were calculated using Microsoft Excel with the “AVERAGE” and “STDEV” functions, respectively.

[4] = parameters: method as in PMID 16751263; details: rat, single IV doses ranging from 0.3 to 4 mg/kg; cited from earlier work
[5] = Metabolic stability (intrinsic clearance) in monkey liver microsomes; type: in vitro ADME, monkey (Cynomolgus); details: monkey liver microsomes
Procedure: as §3, §4

[6] = human, cited from earlier work
[7] = Metabolic stability (intrinsic clearance) in rat liver microsomes; type: in vitro ADME, rat (Sprague-Dawley); details: rat liver microsomes
Procedure: as §3, §4

[8] = Metabolic stability (intrinsic clearance) in dog liver microsomes; type: in vitro ADME, dog (Beagle); details: dog liver microsomes
Procedure: as §3, §4

[9] = Metabolic stability (intrinsic clearance) in mouse liver microsomes; type: in vitro ADME, mouse (CD-1); details: mouse liver microsomes
Procedure: as §3, §4

[10] = rat hepatocytes, listed as FTY720-C2 C8-COOH
[11] = human hepatocytes, listed as FTY720-C2 C8-COOH
[12] = FTY720-Mitoxy incubation, Table 5
[13] = rat hepatocytes, listed as FTY720-Mitoxy C6-COOH
[14] = human hepatocytes, listed as FTY720-Mitoxy C6-COOH

Row | SMILES | Source (peak identified in rat hepatocytes) ([1]; FTY720-C2 incubation, Table 4) | Percent Distribution (1 hr incubation) Rat ([1]; rat hepatocytes) | Percent Distribution (2 hr incubation) Rat ([1]; rat hepatocytes) | Source (peak identified in human hepatocytes) ([2]; FTY720-C2 incubation, Table 4) | Percent Distribution (1 hr incubation) Human ([2]; human hepatocytes) | Percent Distribution (2 hr incubation) Human ([2]; human hepatocytes) | Source (peak identified in rat hepatocytes) [1, 12] | Source (peak identified in human hepatocytes) [2, 12] | other results
1 | CC(=O)NC(CO)(CO)CCc1ccc(CCCCCCCC(=O)O)cc1 [FTY720-C2 C8-carboxylic acid] | R | 37.0% | 39.37% | H | 49.0% | 52.13% |  |  | Percent Distribution (1 hr incubation) Rat [1, 10]: 37%; Percent Distribution (2 hr incubation) Rat [1, 10]: 39%; Percent Distribution (1 hr incubation) Human [2, 11]: 49%; Percent Distribution (2 hr incubation) Human [2, 11]: 52%
2 | O=C(O)CCCCCc1ccc(CCC(CO)(CO)NC(=O)CC[P+](c2ccccc2)(c2ccccc2)c2ccccc2)cc1 [FTY720-Mitoxy C6-carboxylic acid] |  | 83.6% | 79.3% |  | 58.6% | 54.8% | R | H | Percent Distribution (1 hr incubation) Rat [1, 13]: 84%; Percent Distribution (2 hr incubation) Rat [1, 13]: 79%; Percent Distribution (1 hr incubation) Human [2, 14]: 59%; Percent Distribution (2 hr incubation) Human [2, 14]: 55%
3 | CC(=O)NC(CO)(CO)CCc1ccc(CC(=O)O)cc1 [FTY720-C2 C2-carboxylic acid] | R | 21.4% | 35.72% | H | 3.2% | 7.21% |  |  | 
4 | O=C(O)CCCCCCCc1ccc(CCC(CO)(CO)NC(=O)CC[P+](c2ccccc2)(c2ccccc2)c2ccccc2)cc1 [FTY720-Mitoxy C8-carboxylic acid] |  | 4.4% | 3.4% |  | 20.0% | 27.3% | R | H | 
5 | CCCCCCCCc1ccc(CCC(N)(CO)CO)cc1 [FTY720, Fingolimod] |  |  |  |  |  |  |  |  | intrinsic clearance interpreted in words [3]: slow and low; half-life [4]: ~ 20 hr; intrinsic clearance interpreted in words [5]: slow and low; phosphorylated metabolites ([1]; rat hepatocytes): identified; elimination half-life ([6]; after oral dosing): about 7 days; half-life ([6]; single oral doses of 1 mg): ~ 7 days; phosphorylated metabolites ([2]; human hepatocytes): identified; intrinsic clearance interpreted in words [7]: slow and low; intrinsic clearance interpreted in words [8]: slow and low; intrinsic clearance interpreted in words [9]: slow and low
6 | CC(=O)NC(CO)(CO)CCc1ccc(CCCC(=O)O)cc1 [FTY720-C2 C4-carboxylic acid] | R | 9.7% | 12.88% | H | 23.7% | 25.57% |  |  | 
